Laboratory results from patent US20240270762A1, “PENICILLIN-BINDING PROTEIN INHIBITORS” (priority 2021, published 2024).
pIC50: −log10 of the molar value. ≈ marks a conversion by molar mass, not a printed value.

What was measured:
[1] = molecular target: T1, PBP3 from Pseudomonas aeruginosa (PAO1) (Pseudomonas aeruginosa, UniProt G3XD46); assay: Bocillin-FL fluorescence polarization competition binding, P. aeruginosa PBP3; settings: Binding affinity to P. aeruginosa PBP3; fluorescence polarization competition binding assay using Bocillin-FL; read-out: P. aeruginosa PBP3 Potency
T1 construct: made in house
Procedure, shortened: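 Purified PBPs pre-incubated with inhibitor (E. coli PBP3 1.5 μM, 30 min; P. aeruginosa PBP3 0.75 μM, A. baumannii PBP1a 1 μM and PBP3 0.2 μM, 15 min), then Bocillin-FL 0.1 μM (0.05 μM for PBP1a) added; FP read up to 60 min. EC50 = concentration halving bound Bocillin-FL.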

P. aeruginosa ATCC 27853 = assay: microbe, parasite or virus in culture; type: cell-based; settings: Pseudomonas aeruginosa, ATCC27853, read-out: Minimum inhibitory concentration, P. aeruginosa ATCC 27853
P. aeruginosa CDC-0054 = assay: microbe, parasite or virus in culture; type: cell-based; settings: Pseudomonas aeruginosa, CDC0054, read-out: Minimum inhibitory concentration, P. aeruginosa CDC-0054
P. aeruginosa CDC-0090 = assay: microbe, parasite or virus in culture; type: cell-based; settings: Pseudomonas aeruginosa, CDC0090, read-out: Minimum inhibitory concentration, P. aeruginosa CDC-0090
A. baumannii CDC-0036 = assay: microbe, parasite or virus in culture; type: cell-based; settings: Acinetobacter baumannii, CDC0036, read-out: MIC, A. baumannii CDC-0036
A. baumannii CDC-0083 = assay: microbe, parasite or virus in culture; type: cell-based; settings: Acinetobacter baumannii, CDC0083, read-out: MIC, A. baumannii CDC-0083
[2] = test system: B. humptydooensis ATCC BAA-2767; assay: microbe, parasite or virus in culture; type: cell-based; settings: Burkholderia humptydooensis, ATCCBAA2767, read-out: Minimum inhibitory concentration (MIC), B. humptydooensis ATCC BAA-2767
P. aeruginosa CDC-0110 = assay: microbe, parasite or virus in culture; type: cell-based; settings: Pseudomonas aeruginosa, CDC0110, read-out: Minimum inhibitory concentration, P. aeruginosa CDC-0110
[3] = test system: N. gonorrhoeae ATCC 49226; assay: Liquid broth MIC in Fastidious broth; settings: Neisseria gonorrhoeae, ATCC49226, read-out: Minimum Inhibitory Concentration (MIC), N. gonorrhoeae ATCC 49226
N. gonorrhoeae FA1090 = assay: Liquid broth MIC in Fastidious broth; settings: Neisseria gonorrhoeae, FA1090, read-out: Minimum Inhibitory Concentration (MIC), N. gonorrhoeae FA 1090
N. gonorrhoeae WHO G = assay: Liquid broth MIC in Fastidious broth; settings: Neisseria gonorrhoeae, read-out: Minimum Inhibitory Concentration (MIC), N. gonorrhoeae WHO G
Procedure: Additional antibacterial testing of the series was performed in 8 reference strains of N. gonorrhoeae (ATCC 49226, FA1090, MS 11, WHO G, WHO L, WHO M, WHO K, WHO X, WHO Z, WHO Q, CDC-0197). ATCC 49226, FA1090, MS11, WHO G, WHO L, and WHO M produce wild type or wild-type like PBP2. WHO K, WHO X, WHO Z, WHO Q, and CDC-0197 produce mosaic PBP2. Liquid broth-based assays were used for antibacterial testing of PBP inhibitors in Neisseria gonorrhoeae. Briefly, cryo-preserved bacterial cultures of clinical strains were streaked for isolation on Chocolate Agar (72 g/L (2×) GC Agar Base (BD #228950) and 2% (2×) Hemoglobin was autoclaved at 121° C. for 20 minutes to sterilize. Once cooled to ˜50° C. the 2×GC Agar Base and 2× Hemoglobin solutions are combined and 1% IsoVitaleX Enrichment (BD #211876) was added to the solution). Strains were incubated at 36° C. and 5% CO2 to allow growth of colonies, 24 hours before inoculum preparation. 2-fold serial dilutions of test compounds were conducted in a 96 well plate with a final volume of 75 μL per well at 2-fold the final desired concentration in Fastidious broth (Remel #R07664). For preparation of assay inoculum, a direct suspension was prepared by aseptically swabbing 10-15 colonies from agar plates into culture tubes containing 2 mL of fresh sterile saline. After the dilution plates were set up, direct suspensions were then diluted in a cuvette containing sterile saline and the optical density was measured at 600 nm. Inocula were diluted such that 75 μL of this culture in Fastidious broth results in a starting bacterial concentration of 5×10^5 CFU/mL when added to the dilution plates. The plates were incubated for ˜24 hours at 36° C. and 5% CO2.

N. gonorrhoeae WHO M = assay: Liquid broth MIC in Fastidious broth; settings: Neisseria gonorrhoeae, read-out: Minimum Inhibitory Concentration (MIC), N. gonorrhoeae WHO M
N. gonorrhoeae WHO X = assay: Liquid broth MIC in Fastidious broth; settings: Neisseria gonorrhoeae, read-out: Minimum Inhibitory Concentration (MIC), N. gonorrhoeae WHO X
Procedure: Liquid broth-based assays were used for antibacterial testing of PBP inhibitors in Neisseria gonorrhoeae. Briefly, cryo-preserved bacterial cultures of clinical strains were streaked for isolation on Chocolate Agar (72 g/L (2×) GC Agar Base (BD #228950) and 2% (2×) Hemoglobin was autoclaved at 121° C. for 20 minutes to sterilize. Once cooled to ˜50° C. the 2×GC Agar Base and 2× Hemoglobin solutions are combined and 1% IsoVitaleX Enrichment (BD #211876) was added to the solution). Strains were incubated at 36° C. and 5% CO2 to allow growth of colonies, 24 hours before inoculum preparation. 2-fold serial dilutions of test compounds were conducted in a 96 well plate with a final volume of 75 μL per well at 2-fold the final desired concentration in Fastidious broth (Remel #R07664). For preparation of assay inoculum, a direct suspension was prepared by aseptically swabbing 10-15 colonies from agar plates into culture tubes containing 2 mL of fresh sterile saline. After the dilution plates were set up, direct suspensions were then diluted in a cuvette containing sterile saline and the optical density was measured at 600 nm. Inocula were diluted such that 75 μL of this culture in Fastidious broth results in a starting bacterial concentration of 5×10^5 CFU/mL when added to the dilution plates. The plates were incubated for ˜24 hours at 36° C. and 5% CO2.

T1 sequence (G3XD46 whole entry): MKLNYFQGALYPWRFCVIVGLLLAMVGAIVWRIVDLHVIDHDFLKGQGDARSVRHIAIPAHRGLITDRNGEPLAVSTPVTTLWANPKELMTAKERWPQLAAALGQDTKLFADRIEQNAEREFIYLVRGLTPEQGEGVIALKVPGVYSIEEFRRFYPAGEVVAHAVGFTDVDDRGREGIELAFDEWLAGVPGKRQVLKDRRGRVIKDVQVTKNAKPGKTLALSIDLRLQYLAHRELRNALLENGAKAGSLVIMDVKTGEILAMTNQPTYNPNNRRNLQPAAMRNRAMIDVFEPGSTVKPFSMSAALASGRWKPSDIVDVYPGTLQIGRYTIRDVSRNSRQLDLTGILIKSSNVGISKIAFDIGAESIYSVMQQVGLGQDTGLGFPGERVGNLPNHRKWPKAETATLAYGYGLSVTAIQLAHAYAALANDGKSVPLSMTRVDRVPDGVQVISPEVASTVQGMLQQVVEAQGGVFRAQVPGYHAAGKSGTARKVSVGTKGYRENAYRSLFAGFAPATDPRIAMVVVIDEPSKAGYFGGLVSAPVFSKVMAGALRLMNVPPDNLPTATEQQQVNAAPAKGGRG

SMILES | pIC50 [1] | MIC (P. aeruginosa ATCC 27853) | MIC (P. aeruginosa CDC-0054) | MIC (P. aeruginosa CDC-0090) | MIC (A. baumannii CDC-0036) | MIC (A. baumannii CDC-0083) | MIC [2] | MIC (P. aeruginosa CDC-0110) | MIC [3] | MIC (N. gonorrhoeae FA1090) | MIC (N. gonorrhoeae WHO G) | MIC (N. gonorrhoeae WHO M) | MIC (N. gonorrhoeae WHO X)
O=C(NCCCN1CCN(C(=O)N[C@@H](C(=O)N[C@H]2Cc3ccc(F)c(C(=O)O)c3OB2O)c2cc(F)c(O)c(O)c2Cl)C(=O)C1=O)c1cccnc1 [Example 210, (R)-3-((R)-2-(2-chloro-5-fluoro-3,4-dihydroxyphenyl)-2-(4-(3-(nicotinamido)propyl)-2,3-dioxopiperazine-1-carboxamido)acetamido)-7-fluoro-2-hydroxy-3,4-dihydro-2H-benzo[e][1,2]oxaborinine-8-carboxylic acid] | > 5.00 | 2 to 4 mg/L (≈ 2.69 to 5.37 µM) | < 1 mg/L | < 1 mg/L | 2 to 4 mg/L (≈ 2.69 to 5.37 µM) | 2 to 4 mg/L (≈ 2.69 to 5.37 µM) | < 1 mg/L | < 1 mg/L | 16 to 32 mg/L (≈ 21.5 to 43 µM) | < 1 mg/L | 4 to 8 mg/L (≈ 5.37 to 10.7 µM) | 16 to 32 mg/L (≈ 21.5 to 43 µM) | > 64 mg/L
O=C(NCCN1CCN(C(=O)NC(C(=O)N[C@H]2Cc3ccc(F)c(C(=O)O)c3OB2O)c2cc(F)c(O)c(O)c2Cl)C(=O)C1=O)c1ccc(O)cc1 (stereo partly drawn) [Example 214, (3R)-3-(2-(2-chloro-5-fluoro-3,4-dihydroxyphenyl)-2-(4-(2-(4-hydroxybenzamido)ethyl)-2,3-dioxopiperazine-1-carboxamido)acetamido)-7-fluoro-2-hydroxy-3,4-dihydro-2H-benzo[e][1,2]oxaborinine-8-carboxylic acid] | > 5.00 | 2 to 4 mg/L (≈ 2.68 to 5.36 µM) | 2 to 4 mg/L (≈ 2.68 to 5.36 µM) | < 1 mg/L | 8 to 16 mg/L (≈ 10.7 to 21.5 µM) | > 128 mg/L | < 1 mg/L | < 1 mg/L | 4 to 8 mg/L (≈ 5.36 to 10.7 µM) | 1 to 2 mg/L (≈ 1.34 to 2.68 µM) | 4 to 8 mg/L (≈ 5.36 to 10.7 µM) | 4 to 8 mg/L (≈ 5.36 to 10.7 µM) | > 64 mg/L
O=C(NCCN1CCN(C(=O)NC(C(=O)N[C@H]2Cc3ccc(F)c(C(=O)O)c3OB2O)c2cc(F)c(O)c(O)c2Cl)C(=O)C1=O)c1cccc(O)c1 (stereo partly drawn) [Example 215, (3R)-3-(2-(2-chloro-5-fluoro-3,4-dihydroxyphenyl)-2-(4-(2-(3-hydroxybenzamido)ethyl)-2,3-dioxopiperazine-1-carboxamido)acetamido)-7-fluoro-2-hydroxy-3,4-dihydro-2H-benzo[e][1,2]oxaborinine-8-carboxylic acid] | > 5.00 | 2 to 4 mg/L (≈ 2.68 to 5.36 µM) | 8 to 16 mg/L (≈ 10.7 to 21.5 µM) | < 1 mg/L | 8 to 16 mg/L (≈ 10.7 to 21.5 µM) | > 128 mg/L | < 1 mg/L | < 1 mg/L | 16 to 32 mg/L (≈ 21.5 to 42.9 µM) | 1 to 2 mg/L (≈ 1.34 to 2.68 µM) | 4 to 8 mg/L (≈ 5.36 to 10.7 µM) | 4 to 8 mg/L (≈ 5.36 to 10.7 µM) | > 64 mg/L
O=C(NCCN1CCN(C(=O)NC(C(=O)N[C@H]2Cc3ccc(F)c(C(=O)O)c3OB2O)c2cc(F)c(O)c(O)c2Cl)C(=O)C1=O)c1ccncc1 (stereo partly drawn) [Example 216, (3R)-3-(2-(2-chloro-5-fluoro-3,4-dihydroxyphenyl)-2-(4-(2-(isonicotinamido)ethyl)-2,3-dioxopiperazine-1-carboxamido)acetamido)-7-fluoro-2-hydroxy-3,4-dihydro-2H-benzo[e][1,2]oxaborinine-8-carboxylic acid] | > 5.00 | 2 to 4 mg/L (≈ 2.74 to 5.47 µM) | 8 to 16 mg/L (≈ 10.9 to 21.9 µM) | < 1 mg/L | 8 to 16 mg/L (≈ 10.9 to 21.9 µM) | > 128 mg/L | < 1 mg/L | < 1 mg/L | 16 to 32 mg/L (≈ 21.9 to 43.8 µM) | 4 to 8 mg/L (≈ 5.47 to 10.9 µM) | 4 to 8 mg/L (≈ 5.47 to 10.9 µM) | 4 to 8 mg/L (≈ 5.47 to 10.9 µM) | > 64 mg/L
O=C(NCCN1CCN(C(=O)NC(C(=O)N[C@H]2Cc3ccc(F)c(C(=O)O)c3OB2O)c2cc(F)c(O)c(O)c2Cl)C(=O)C1=O)c1cccnc1 (stereo partly drawn) [Example 217, (3R)-3-(2-(2-chloro-5-fluoro-3,4-dihydroxyphenyl)-2-(4-(2-(nicotinamido)ethyl)-2,3-dioxopiperazine-1-carboxamido)acetamido)-7-fluoro-2-hydroxy-3,4-dihydro-2H-benzo[e][1,2]oxaborinine-8-carboxylic acid] | > 5.00 | 2 to 4 mg/L (≈ 2.74 to 5.47 µM) | < 1 mg/L | 2 to 4 mg/L (≈ 2.74 to 5.47 µM) | 8 to 16 mg/L (≈ 10.9 to 21.9 µM) | > 128 mg/L | < 1 mg/L | < 1 mg/L | 16 to 32 mg/L (≈ 21.9 to 43.8 µM) | 1 to 2 mg/L (≈ 1.37 to 2.74 µM) | 16 to 32 mg/L (≈ 21.9 to 43.8 µM) | 16 to 32 mg/L (≈ 21.9 to 43.8 µM) | > 64 mg/L
O=C(NCCN1CCN(C(=O)NC(C(=O)N[C@H]2Cc3ccc(F)c(C(=O)O)c3OB2O)c2cc(F)c(O)c(O)c2Cl)C(=O)C1=O)c1nccs1 (stereo partly drawn) [Example 218, (3R)-3-(2-(2-chloro-5-fluoro-3,4-dihydroxyphenyl)-2-(2,3-dioxo-4-(2-(thiazole-2-carboxamido)ethyl)piperazine-1-carboxamido)acetamido)-7-fluoro-2-hydroxy-3,4-dihydro-2H-benzo[e][1,2]oxaborinine-8-carboxylic acid] | > 5.00 | 2 to 4 mg/L (≈ 2.71 to 5.43 µM) | 8 to 16 mg/L (≈ 10.9 to 21.7 µM) | < 1 mg/L | 8 to 16 mg/L (≈ 10.9 to 21.7 µM) | 8 to 16 mg/L (≈ 10.9 to 21.7 µM) | 2 to 4 mg/L (≈ 2.71 to 5.43 µM) | 2 to 4 mg/L (≈ 2.71 to 5.43 µM) | 16 to 32 mg/L (≈ 21.7 to 43.4 µM) | 1 to 2 mg/L (≈ 1.36 to 2.71 µM) | 16 to 32 mg/L (≈ 21.7 to 43.4 µM) | 16 to 32 mg/L (≈ 21.7 to 43.4 µM) | > 64 mg/L
O=C(NCCN1CCN(C(=O)NC(C(=O)N[C@H]2Cc3ccc(F)c(C(=O)O)c3OB2O)c2cc(F)c(O)c(O)c2Cl)C(=O)C1=O)Nc1ccc(O)cc1 (stereo partly drawn) [Example 219, (3R)-3-(2-(2-chloro-5-fluoro-3,4-dihydroxyphenyl)-2-(4-(2-(3-(4-hydroxyphenyl)ureido)ethyl)-2,3-dioxopiperazine-1-carboxamido)acetamido)-7-fluoro-2-hydroxy-3,4-dihydro-2H-benzo[e][1,2]oxaborinine-8-carboxylic acid] | > 5.00 | 2 to 4 mg/L (≈ 2.63 to 5.26 µM) | 8 to 16 mg/L (≈ 10.5 to 21 µM) | < 1 mg/L | 8 to 16 mg/L (≈ 10.5 to 21 µM) | 8 to 16 mg/L (≈ 10.5 to 21 µM) | 8 to 16 mg/L (≈ 10.5 to 21 µM) | < 1 mg/L | 16 to 32 mg/L (≈ 21 to 42.1 µM) | 1 to 2 mg/L (≈ 1.31 to 2.63 µM) | 16 to 32 mg/L (≈ 21 to 42.1 µM) | 4 to 8 mg/L (≈ 5.26 to 10.5 µM) | > 64 mg/L
O=C(NCCN1CCN(C(=O)NC(C(=O)N[C@H]2Cc3ccc(F)c(C(=O)O)c3OB2O)c2cc(F)c(O)c(O)c2Cl)C(=O)C1=O)Nc1cccc(O)c1 (stereo partly drawn) [Example 220, (3R)-3-(2-(2-chloro-5-fluoro-3,4-dihydroxyphenyl)-2-(4-(2-(3-(3-hydroxyphenyl)ureido)ethyl)-2,3-dioxopiperazine-1-carboxamido)acetamido)-7-fluoro-2-hydroxy-3,4-dihydro-2H-benzo[e][1,2]oxaborinine-8-carboxylic acid] | > 5.00 | 2 to 4 mg/L (≈ 2.63 to 5.26 µM) | 8 to 16 mg/L (≈ 10.5 to 21 µM) | < 1 mg/L | 8 to 16 mg/L (≈ 10.5 to 21 µM) | 8 to 16 mg/L (≈ 10.5 to 21 µM) | 32 to 64 mg/L (≈ 42.1 to 84.1 µM) | < 1 mg/L | 16 to 32 mg/L (≈ 21 to 42.1 µM) | 1 to 2 mg/L (≈ 1.31 to 2.63 µM) | 4 to 8 mg/L (≈ 5.26 to 10.5 µM) | 4 to 8 mg/L (≈ 5.26 to 10.5 µM) | > 64 mg/L
O=C(NCCN1CCN(C(=O)N[C@@H](C(=O)N[C@H]2Cc3ccc(F)c(C(=O)O)c3OB2O)c2cc(F)c(O)c(O)c2Cl)C(=O)C1=O)Nc1ccncc1 [Example 221, (R)-3-((R)-2-(2-chloro-5-fluoro-3,4-dihydroxyphenyl)-2-(2,3-dioxo-4-(2-(3-(pyridin-4-yl)ureido)ethyl)piperazine-1-carboxamido)acetamido)-7-fluoro-2-hydroxy-3,4-dihydro-2H-benzo[e][1,2]oxaborinine-8-carboxylic acid] | > 5.00 | < 1 mg/L | 2 to 4 mg/L (≈ 2.68 to 5.36 µM) | < 1 mg/L | 2 to 4 mg/L (≈ 2.68 to 5.36 µM) | 32 to 64 mg/L (≈ 42.9 to 85.8 µM) | < 1 mg/L | < 1 mg/L | 16 to 32 mg/L (≈ 21.5 to 42.9 µM) | 1 to 2 mg/L (≈ 1.34 to 2.68 µM) | 4 to 8 mg/L (≈ 5.36 to 10.7 µM) | 4 to 8 mg/L (≈ 5.36 to 10.7 µM) | > 64 mg/L
O=C(NCCN1CCN(C(=O)N[C@@H](C(=O)N[C@H]2Cc3ccc(F)c(C(=O)O)c3OB2O)c2cc(F)c(O)c(O)c2Cl)C(=O)C1=O)Nc1cccnc1 [Example 222, (R)-3-((R)-2-(2-chloro-5-fluoro-3,4-dihydroxyphenyl)-2-(2,3-dioxo-4-(2-(3-(pyridin-3-yl)ureido)ethyl)piperazine-1-carboxamido)acetamido)-7-fluoro-2-hydroxy-3,4-dihydro-2H-benzo[e][1,2]oxaborinine-8-carboxylic acid] | > 5.00 | < 1 mg/L | 2 to 4 mg/L (≈ 2.68 to 5.36 µM) | 2 to 4 mg/L (≈ 2.68 to 5.36 µM) | 2 to 4 mg/L (≈ 2.68 to 5.36 µM) | 32 to 64 mg/L (≈ 42.9 to 85.8 µM) | 2 to 4 mg/L (≈ 2.68 to 5.36 µM) | < 1 mg/L | 16 to 32 mg/L (≈ 21.5 to 42.9 µM) | 1 to 2 mg/L (≈ 1.34 to 2.68 µM) | 4 to 8 mg/L (≈ 5.36 to 10.7 µM) | 4 to 8 mg/L (≈ 5.36 to 10.7 µM) | > 64 mg/L
